Reference: patent US10959995B2, “Methods of acute restoration of vascular compliance” (Alumend, LLC, priority 2013, dated 2021)
Entries after “also recorded” stand apart in the source; their conditions may differ.

How the values were obtained:
artery = test: Arterial compression with other photoactivated material; conditions: FIG. 13
Method: Singlet oxygen generating species, such as Rose Bengal, riboflavin, and methylene blue were tested to determine if they would be effective at arterial compression.

[1] = Storage stability of naphthalimide dimer (solution and powder); type: physicochemical
Excerpt: A preparative HPLC approach was used to isolate and specifically purify the compound of formula (V) dimer from the compound of formula (V) naphthalimide product produced from the ethanol crystallization. The HPLC method used was based on the purity method outlined above; however, method modifications were made to replace acetonitrile with ethanol and TFA with acetic acid in the mobile phase. The preparative separation utilized a C18 column (X-bridge, 10 μm, 19×250 mm, Waters). The mobile phase consisted of mobile phase A, 0.1% acetic acid (aq), and mobile phase B, 9:1 ethanol:water (0.1% v/v acetic acid). The column was pre-equilibrated at a starting mobile phase of 95% A:5% B for 20 minutes, at the start of the gradient was a 2 minute hold followed by a linear gradient to 90% B at 40 minutes and a 10 minute hold. An injection volume of 8.5 mL (12 mg/mL purified compound of formula (V)) and flow rate of 8.5 mL/minute were used as well as a detector wavelength of 440 nm. The compound of formula (V) fractions were collected and analyzed using the analytical purity method presented above. Fractions meeting a minimum purity criterion were combined and the solvent driven off by rotovapping the solution to dryness. […] Finally the product was quantitatively transferred from the round bottom flask to a freeze drying flask by dissolving the product in a minimal amount of deionized water. […]

[2] = test system: hard (calcified) and soft plaque in diseased arteries; test: Plaque penetration: diseased arteries soaked with plaque softening composition, light activated, visual and histological examination; set-up: species or system human
Method: Diseased arteries were obtained from limb amputations (leg) due to advanced Periperal Arterial Disease (PAD) from patients at Avera McKennan hospital. The received arteries were evaluated and chosen such that the diseased section was of reasonable size to accommodate the treatment catheter balloon length being used. The catheter balloon diameter used was also matched to the diameter of the artery and capable of achieving a 1:1.25 (ratio of artery diameter to balloon diameter) overstretch. The artery was laid in a petri dish and an angioplasty balloon was inserted and inflated for 60 seconds to impart the desired overstretch. While the angioplasty balloon was inflated a permanent marker was used to define the treatment zone (where the overstretch was imparted by the balloon) on the outer surface of the artery. The angioplasty balloon was deflated and removed. The inner lumen of the diseased artery was exposed to a plaque softening composition comprising a compound of formula (V) naphthalimide formulation (2 mg/mL in phosphate buffered saline, pH=7.4) for a period of 5 minutes. For the purpose of filling the artery, one end was clamped, the artery was held upright and a syringe was used to dispense the naphthalimide solution until the inner lumen was filled. The open end of the artery was then clamped and the soaking period of 5 minutes commenced. […] Arteries were cut open lengthwise and the treated section was evaluated by visual examination.
Prior to cutting the artery for visual examination samples from the treated and untreated sections were collected and preserved for histological examination. […] After this time, samples were stored in a −80° C. freezer until ready for further analysis. […] The crystalline nature of hard plaque is readily visible without staining. Under this magnification the crystalline structure of the calcific plaque was readily visible, as shown in FIG. 8 the dark area between the two lighter colored areas of the media. […]

[3] = test system: hard and soft plaque from common and lower femoral artery; test: Tissue immersion: plaque hardness by manual manipulation with forceps; set-up: species or system human; conditions: PBS pH 7.4
Excerpt: A sample of human tissue from the common and lower femoral artery was received. It was stored in saline and refrigerated until use. Based upon visual and tactile observations, the arteries were approximately 7-8 mm in diameter and contained evidence of both hard and soft plaque. The soft plaque has a yellow fatty appearance that is distinguishable from the vessel wall. The hard plaque presents itself as hard pieces of material that can be pulled (with a forceps) from the soft plaque. Sections of the artery suitable for catheter work were segregated and stored in phosphate buffered saline (PBS), pH=7.4. From the remaining arterial sections, pieces of tissue containing both hard and soft plaque were removed. These pieces were either placed in a solution of PBS (pH=7.4), or dimeric naphthalimide, such as a compound of formula (V) (which is in PBS, pH=7.4). Prior to immersion in either solution the relative hardness of the plaque was evaluated via manual manipulation with a forcep. After a 5 minute soak in solution (typical exposure time), no difference in the samples soaked in PBS was noticed (control). […] The samples were then left in their respective solutions for an additional 90 minutes.

artery tissue = test: Angioplasty with plaque-softening composition and photoactivation: fissure observation; set-up: species or system human
Method: The tissue was an artery approximately 7.4 mm in diameter. An Ultra-thin SDS 8 mm×30 mm catheter was used to dilate the artery to 7.55 mm (approximately a 2% overstretch). A fissure or a possible dissection running down the length of the tissue sample was observed.
A section (6.5 cm in length) of artery was exposed to the composition for 5 minutes. An 80 mm catheter was used to impart a 2% overstretch to the artery. The angioplasty was followed by photoactivation at 1800 mW for 60 seconds using the same 80 mm catheter with a 60 mm light fiber centered in the catheter.
A catheter with an 80 mm treatment zone balloon was used however the photoactivating light fiber was only 60 mm in length. During activation it was noted that the light fiber was shifted distally in the catheter. This meant that the distal end of the artery was receiving photoactivation, however, the proximal end received little or no light. A fissure down the length of the artery was again observed.

[4] = 2 mg/mL in PBS pH 7.4, 5 minute soak, 447 nm light activation 60 seconds

With `O=C([O-])c1c(Cl)c(Cl)c(Cl)c(Cl)c1-c1c2cc(I)c(=O)c(I)c-2oc2c(I)c([O-])c(I)cc12.[Na+].[Na+]` [Rose Bengal] the “efficacy at arterial compression” value (artery) was “No efficacy”.

With `NCCOCCOCCNc1ccc2c3c(cccc13)C(=O)N(CCOCCOCCN1C(=O)c3cccc4c(NCCOCCOCCN)ccc(c34)C1=O)C2=O` [compound of formula (V)] the “degradation of dimer in powder form” value ([1]; periods exceeding one year of storage in a dessicator at room temperature) was “no evidence of degradation”, the “stability of dimer solution” value ([1]; solution at pH 7.4, periods up to one year) was “excellent stability” and the “tacking of intimal flaps” value [2, 4] was “definitive observation of tacking of intimal flaps”. For the same compound, the “visual/tactile observation of plaque in treated region” value [2, 4] was “apparent softened plaque; also recorded: looked and felt softer and creamier”, the “calcium crystals in treated sections under microscope” value ([2]; treated vs untreated sections of artery) was “less evidence of calcium crystals” and the “plaque hardness after soak” value ([3]; 5 minute soak in solution) was “slight softening”. For the same compound, the “plaque hardness after soak” value ([3]; additional 90 minutes in solution) was “significantly softer and more pliable”, the repair of fissure (artery tissue; angioplasty then composition, distal region with adequate photoactivation) was “there appeared to be a seam indicating repair” and the “fissure in opened artery” value (artery tissue; composition 5 minutes, then angioplasty 2% overstretch, photoactivation 1800 mW 60 seconds) was “no fissure observed”.

For `CN(C)c1ccc2nc3ccc(=[N+](C)C)cc-3sc2c1` [methylene blue], the “efficacy at arterial compression” value (artery) was “No efficacy”.

In the case of `Cc1cc2nc3c(=O)[nH]c(=O)nc-3n(C[C@H](O)[C@H](O)[C@H](O)CO)c2cc1C` [riboflavin], the “efficacy at arterial compression” value (artery) is reported as “No efficacy”.
